Assay results as given in ChEMBL document CHEMBL5338813 (J Med Chem, 2023).
The source made the active and inactive calls. The rule behind the calls is not given here.

Columns and labels:
hERG (KCNH2) [1] = target: T1, hERG (KCNH2) (Homo sapiens, UniProt Q12809); assay: Inhibition of human ERG expressed in CHO cells at 1 uM by automated patch clamp assay relative to control; type: cell-based; details: CHO cells that express hERG
[2] = Metabolic stability in mouse liver microsomes assessed as half life measured upto 60 mins; type: ADME, Microsome; details: 1 h
[3] = AUC in mouse plasma at 5 mg/kg, po measured upto 24 hrs by LC-MS/MS analysis; type: ADME, organism-based; design: dose 5 mg/kg, time < 24 hrs, route po; details: in vivo
Cryptosporidium parvum [4] = assay: Antiparasitic activity against Cryptosporidium parvum infected in mouse assessed as relapse in parasite growth at >=5 mg/kg, po pre-infected with parasite for 7 days followed by compound addition twice daily for 4 days; type: functional, organism-based; details: time 4.0 day
[5] = AUC in mouse Jejunum at 5 mg/kg, po measured upto 24 hrs by LC-MS/MS analysis; type: ADME, organism-based; design: dose 5 mg/kg, time < 24 hrs, route po; details: in vivo
[6] = Plasma protein binding in mouse at 1 uM incubated for 30 mins by LC-MS/MS analysis; type: ADME, cell-free; details: 0.5 h
HCT-8 = assay: Cytotoxicity against human HCT-8 cells assessed as reduction in cell number upto 50 uM incubated for 48 hrs by; type: toxicity, cell-based; details: hct-8, 48 h
Cryptosporidium parvum [7] = assay: Antiparasitic activity against Cryptosporidium parvum infected in mouse assessed as relapse in parasite growth at 5 mg/kg, po pre-infected with parasite for 7 days followed by compound addition twice daily for 4 days; type: functional, organism-based; details: time 4.0 day
[8] = Cmax in mouse Jejunum at 5 mg/kg, po measured upto 24 hrs by LC-MS/MS analysis; type: ADME, organism-based; design: dose 5 mg/kg, time < 24 hrs, route po; details: in vivo
hERG (KCNH2) [9] = target: T1, hERG (KCNH2); assay: Inhibition of human ERG expressed in CHO cells at 30 uM by automated patch clamp assay relative to control; type: cell-based; details: CHO cells that express hERG
[10] = Cmax in mouse plasma at 5 mg/kg, po measured upto 24 hrs by LC-MS/MS analysis; type: ADME, organism-based; design: time < 24 hrs, dose 5 mg/kg, route po; details: in vivo
Cryptosporidium parvum [11] = assay: Antiparasitic activity against Cryptosporidium parvum infected in mouse assessed as reduction in parasitic growth at >= 5 mg/kg, po pre-infected with parasite for 7 days followed by compound addition twice daily for 4 days; type: functional; design: scale not given: the % may be the effect or the level left; details: time 4 day
[12] = Metabolic stability in mouse intestinal S9 fraction assessed as intrinsic clearance measured upto 60 mins; type: ADME, subcellular, Intestine; details: read-out: CLH
[13] = Tmax in mouse plasma at 5 mg/kg, po measured upto 24 hrs by LC-MS/MS analysis; type: ADME, organism-based; details: in vivo
[14] = Metabolic stability in mouse liver microsomes assessed as intrinsic clearance measured upto 60 mins; type: ADME, Microsome; details: read-out: CLH
Cryptosporidium parvum [15] = assay: Antiparasitic activity against Cryptosporidium parvum infected in human HCT-8 cells assessed as parasitic growth inhibition incubated for 48 hrs by fluorescence microscopic analysis; type: functional, organism-based; details: HCT-8, 48 h
[16] = Tmax in mouse Jejunum at 5 mg/kg, po measured upto 24 hrs by LC-MS/MS analysis; type: ADME, organism-based; details: in vivo
hERG (KCNH2) [17] = target: T1, hERG (KCNH2); assay: Inhibition of human ERG expressed in CHO cells at 10 uM by automated patch clamp assay relative to control; type: cell-based; details: CHO cells that express hERG
[18] = target: Voltage-gated inwardly rectifying potassium channel KCNH2 (Homo sapiens, UniProt Q12809); assay: Displacement of [3H]Dofetilide from human ERG at 30 uM by automated patch clamp assay relative to control; details: 30 µM
[19] = Metabolic stability in mouse intestinal S9 fraction assessed as half life measured upto 60 mins; type: ADME, subcellular, Intestine; details: s9, 1 h

T1 sequence (Q12809 whole entry): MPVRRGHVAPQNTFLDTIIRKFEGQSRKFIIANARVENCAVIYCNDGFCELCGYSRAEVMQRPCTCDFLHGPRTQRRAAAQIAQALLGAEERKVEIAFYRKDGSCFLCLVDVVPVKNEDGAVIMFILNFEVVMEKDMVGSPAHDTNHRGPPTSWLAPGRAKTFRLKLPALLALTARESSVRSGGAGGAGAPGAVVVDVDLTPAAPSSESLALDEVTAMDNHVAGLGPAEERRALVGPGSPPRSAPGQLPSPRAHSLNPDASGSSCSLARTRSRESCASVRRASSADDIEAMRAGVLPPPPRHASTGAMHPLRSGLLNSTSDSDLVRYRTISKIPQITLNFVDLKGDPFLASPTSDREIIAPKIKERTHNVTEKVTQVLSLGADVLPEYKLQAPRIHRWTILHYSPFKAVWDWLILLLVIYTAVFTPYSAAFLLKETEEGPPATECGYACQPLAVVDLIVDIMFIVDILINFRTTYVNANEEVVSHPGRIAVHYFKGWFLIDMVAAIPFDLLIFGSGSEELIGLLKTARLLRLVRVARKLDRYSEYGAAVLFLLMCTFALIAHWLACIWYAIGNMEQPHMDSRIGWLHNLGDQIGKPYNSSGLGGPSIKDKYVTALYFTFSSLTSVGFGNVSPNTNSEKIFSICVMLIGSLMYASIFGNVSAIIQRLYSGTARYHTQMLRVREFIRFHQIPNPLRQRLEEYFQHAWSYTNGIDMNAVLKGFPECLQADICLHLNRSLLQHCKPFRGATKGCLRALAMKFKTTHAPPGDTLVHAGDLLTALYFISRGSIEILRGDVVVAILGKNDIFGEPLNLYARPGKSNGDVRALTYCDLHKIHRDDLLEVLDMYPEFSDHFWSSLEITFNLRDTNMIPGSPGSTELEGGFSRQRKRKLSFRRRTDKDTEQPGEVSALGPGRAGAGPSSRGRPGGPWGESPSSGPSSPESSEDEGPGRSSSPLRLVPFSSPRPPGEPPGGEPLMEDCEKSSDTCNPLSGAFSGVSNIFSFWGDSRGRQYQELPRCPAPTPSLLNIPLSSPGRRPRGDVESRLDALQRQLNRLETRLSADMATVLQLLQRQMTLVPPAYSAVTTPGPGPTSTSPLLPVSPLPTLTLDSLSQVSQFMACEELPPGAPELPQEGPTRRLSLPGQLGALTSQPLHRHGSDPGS
Voltage-gated inwardly rectifying potassium channel KCNH2, sequence (Q12809 whole entry): as above

In the case of `O=C(Cc1ccc(F)c(C(F)(F)F)c1)N1CCN(c2ccc3nncn3n2)CC1`, the inhibition at 1 µM (hERG (KCNH2) [1]) is reported as 15%, the t1/2 [2] is reported as > 2 h and the AUC [3] is reported as 3300 ng·h/mL. The Activity (Cryptosporidium parvum [4]) was “Active”, the AUC [5] was 2998 ng·h/g and the PPB [6] was 51.8%. For the same molecule, the Activity (HCT-8) was “Non-Toxic”, the Activity (Cryptosporidium parvum [7]) was “inactive” and the Cmax [8] was 299 ng/g. For the same molecule, the inhibition at 30 µM (hERG (KCNH2) [9]) was 84%, the Cmax [10] was 568 ng/mL and the Activity (Cryptosporidium parvum [11]) was >99%. For the same molecule, the microsomal CLint [12] was < 5.8 µL/min/mg, the Tmax [13] was 1 h and the microsomal CLint [14] was < 57.8 µL/min/mg. For the same molecule, the EC50 (Cryptosporidium parvum [15]) was 70 nM, the Tmax [16] was 2 h and the inhibition at 10 µM (hERG (KCNH2) [17]) was 58%. For the same molecule, the Activity [18] was 43% and the t1/2 [19] was > 2 h.
